{"source": "paper PMC8911046", "about": "“Identification of Kukoamine A, Zeaxanthin, and Clexane as New Furin Inhibitors” (International Journal of Molecular Sciences, 2022)", "key": {"[1]": {"molecular_target": "T1, furin from the U-251 MG secretome (Homo sapiens, UniProt P09958)", "T1 construct": "physiological furin secreted from U-251 MG cells; endogenous in cells; host or cells: U-251 MG human glioblastoma cells; conditioned medium (secretome) concentrated 10x", "T1 sequence (P09958 108-715 limits assumed)": "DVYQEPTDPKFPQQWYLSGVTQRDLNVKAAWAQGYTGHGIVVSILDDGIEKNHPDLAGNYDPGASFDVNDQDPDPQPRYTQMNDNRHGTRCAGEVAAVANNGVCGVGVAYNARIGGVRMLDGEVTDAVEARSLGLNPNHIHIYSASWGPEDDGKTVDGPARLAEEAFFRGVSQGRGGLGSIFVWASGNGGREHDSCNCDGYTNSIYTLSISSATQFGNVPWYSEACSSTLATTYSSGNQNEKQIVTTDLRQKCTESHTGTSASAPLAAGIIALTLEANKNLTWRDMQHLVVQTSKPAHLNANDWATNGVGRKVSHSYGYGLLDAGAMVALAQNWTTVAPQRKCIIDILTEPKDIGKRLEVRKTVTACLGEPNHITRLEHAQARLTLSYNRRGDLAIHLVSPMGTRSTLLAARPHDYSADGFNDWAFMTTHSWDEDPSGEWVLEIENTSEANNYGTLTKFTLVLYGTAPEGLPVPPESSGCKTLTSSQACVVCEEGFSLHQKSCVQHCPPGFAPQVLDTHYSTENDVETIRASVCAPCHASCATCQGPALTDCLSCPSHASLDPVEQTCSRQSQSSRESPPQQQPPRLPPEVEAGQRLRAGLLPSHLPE", "experiment": "Furin inhibition assay in coadjuvants with CMK", "format": "biochemical", "settings": "CMK alone, read-out: IC50 for CMK alone, physiological furin", "procedure": "The IC50 was calculated only for those compounds that inhibited recombinant and physiological furin. For each compound concentration, furin activity’s maximum velocity (mRFU/min) was recorded. Then, by using GraphPad software (v. 8), the correlation between the decimal logarithm (compound concentration) and furin activity’s maximum velocity was calculated by nonlinear regression (curve fit) for XY analyses. From this statistical method, the IC50 was calculated with a 95% confidence interval (CI).\nSince furin inhibition by CMK had been tested only in physiological conditions, adjuvant inhibition assays were performed with furin from the U-251 MG secretome. Inhibition was assessed by using different concentrations of CMK (Cat.No. B5437; APExBIO) and the IC50 concentrations of selected virtual screening compounds or Clexane. In a 96-well black plate, various CMK (0–50 µM) concentrations were incubated with the IC50 concentrations of the rest of the compounds and with 10× U-251 MG secretome as described above. After 10 min incubation at room temperature, 50 µM furin specific fluorogenic substrate was added and the plate was read in a Multiskan Go plate reader at 380 and 460 nm for emission and excitation wavelengths, respectively, at 37 °C for 30 min."}, "[2]": {"molecular_target": "T2, human recombinant furin (Homo sapiens, UniProt P09958)", "T2 construct": "purchased R&D Systems 1503-SE-010", "T2 sequence (P09958 108-794)": "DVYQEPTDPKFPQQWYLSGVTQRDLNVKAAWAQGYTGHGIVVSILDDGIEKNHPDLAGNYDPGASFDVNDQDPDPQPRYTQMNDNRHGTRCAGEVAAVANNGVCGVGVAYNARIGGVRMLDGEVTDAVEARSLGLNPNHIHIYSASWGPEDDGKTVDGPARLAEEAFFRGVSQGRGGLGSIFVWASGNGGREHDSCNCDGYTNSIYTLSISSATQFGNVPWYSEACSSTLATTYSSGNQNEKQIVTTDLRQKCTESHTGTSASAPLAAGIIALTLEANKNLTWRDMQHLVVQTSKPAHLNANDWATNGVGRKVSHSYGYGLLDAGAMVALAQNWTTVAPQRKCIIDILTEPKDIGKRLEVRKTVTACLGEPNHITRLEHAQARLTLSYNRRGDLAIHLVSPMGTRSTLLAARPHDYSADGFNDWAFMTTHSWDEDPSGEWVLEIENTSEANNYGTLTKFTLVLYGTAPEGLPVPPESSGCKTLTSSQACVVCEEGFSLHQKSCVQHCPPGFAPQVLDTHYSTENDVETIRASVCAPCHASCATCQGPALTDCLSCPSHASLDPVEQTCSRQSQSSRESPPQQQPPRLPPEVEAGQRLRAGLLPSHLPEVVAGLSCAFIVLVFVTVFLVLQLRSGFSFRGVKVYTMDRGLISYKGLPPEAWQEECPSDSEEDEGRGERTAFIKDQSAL", "experiment": "Fluorogenic furin inhibition assay, recombinant furin", "format": "biochemical", "settings": "3.6 nM human recombinant furin, 50 µM fluorogenic substrate, pH 9", "procedure": "Clexane (LMWH, enoxaparin sodium, Clexane, Sanofi Aventis S.A., Barcelona, Spain) and each candidate compound selected by virtual screening were assayed as inhibitors of human recombinant furin (1503-SE-010; Lot#INK2320031; R&D Systems) and physiological furin secreted from U-251 MG cells. For both types of furin, the fluorogenic specific substrate (mentioned above) was used. […] Compounds were reconstituted in their appropriate solvents (distilled water, ethanol, PBS, etc.), according to the supplier’s instructions. In a 96-well black plate, U-251 MG secretome concentrated 10× or 3.6 nM human recombinant furin were incubated with different compound concentrations for 10 min at room temperature, and then, 50 µM furin specific fluorogenic substrate was added to every well, except one blank. Fluorescence was recorded in the Multiskan Go plate reader at 380 and 460 nm for emission and excitation wavelengths, respectively, at 37 °C for 30 min.\nThe IC50 was calculated only for those compounds that inhibited recombinant and physiological furin. For each compound concentration, furin activity’s maximum velocity (mRFU/min) was recorded. Then, by using GraphPad software (v. 8), the correlation between the decimal logarithm (compound concentration) and furin activity’s maximum velocity was calculated by nonlinear regression (curve fit) for XY analyses. […]"}, "[3]": {"test_system": "293T HEK cell line", "experiment": "Cell viability by 7-AAD flow cytometry", "format": "cell-based", "settings": "for Alive (%) / Dead (%): 293T HEK; for percentage of live cells: half of the IC50 for physiological furin, no compound 94.25% ± 3.18%", "procedure": "New furin inhibitors identified by virtual screening were tested in cell viability assays. The 293T HEK cell line (human embryonic kidney cell line purchased from American Type Culture Collection) was used as healthy cell model. They were cultured in DMEM containing 4,5 g/L glucose, supplemented with 10% fetal bovine serum, 1% GlutaMax, and 0,1% gentamicin. They were maintained in Corning® T-75 flasks (catalog #430641; ThermoFisher Scientific, Waltham, MA, USA) at 37 °C and 5% carbon dioxide. At 100% cellular confluence, cells were subcultured in 12-well plates (flat bottom, sterile, NUNC brand, Biolab, Madrid, Spain) at 100,000 cells/mL for 24 h. Then, different concentrations (double, half, and full IC50 concentrations for physiological furin) of furin inhibitors were added to cells for 24 h, and cells were collected afterward. The experiment was run in duplicates. Then, the cell pellet was resuspended in running buffer (autoMACS ® Running Buffer–MACS Separation Buffer; order no.:130-091-221; Miltenyi Biotec, Madrid, Spain) and 7-AAD (Cat: 51-68981E; BD Biosciences, Madrid, Spain). Finally, this solution was evaluated in a flow cytometer (BD Accuri™ C6 Plus Flow Cytometer; BD Biosciences, Madrid, Spain) to calculate mortality rates. A blank solution with cell pellet resuspended in running buffer was used to discard cell autofluorescence. The results were analyzed in FlowJo software (v. 10)."}, "[4]": {"design": "method as in PMID 27241194, PMID 28254666", "settings": "rats or mice, doses between 5 and 20 mg/kg; cited from earlier work"}, "[5]": {"settings": "2xIC50, single replicates of duplicate"}, "[6]": {"settings": "IC50, single replicates of duplicate"}, "[7]": {"settings": "IC50/2, single replicates of duplicate"}, "[8]": {"settings": "293T cells, double IC50 concentration, 24 h"}}, "note": "Values joined by “and” are separate entries in the source; they are usually repeats but may differ in a detail not shown here. Equal entries are not always repeated. Residues, ends and D or L forms follow the SMILES beside them. *: point of attachment. Decanoyl = CCCCCCCCCC(=O)*; CH2Cl = ClC*"}
{"smiles": "CCCCCCCCCC(=O)N[C@@H](CCCNC(=N)N)C(=O)N[C@H](C(=O)N[C@@H](CCCCN)C(=O)N[C@@H](CCCNC(=N)N)C(=O)CCl)C(C)C", "note": "[CMK, Decanoyl-Arg-Val-Lys-Arg-chloromethylketone] (Decanoyl-RVKR-CH2Cl)", "values": [{"measurement": "IC50", "setting": "[1]", "result": 4.2, "unit": "µM"}]}
{"smiles": "CC1=C(/C=C/C(C)=C/C=C/C(C)=C/C=C/C=C(C)/C=C/C=C(C)/C=C/C2=C(C)C[C@@H](O)CC2(C)C)C(C)(C)C[C@H](O)C1", "note": "[Zeaxanthin]", "values": [{"measurement": "IC50", "setting": "[2]", "result": 90.5, "unit": "µM"}, {"measurement": "Alive (%)", "setting": "[3]; [5]", "result": "1.10% and 15.7%"}, {"measurement": "Dead (%)", "setting": "[3]; [5]", "result": "84.3% and 98.9%"}, {"measurement": "Alive (%)", "setting": "[3]; [6]", "result": "32.8% and 33.9%"}, {"measurement": "Dead (%)", "setting": "[3]; [6]", "result": "67.2% and 66.1%"}, {"measurement": "Alive (%)", "setting": "[3]; [7]", "result": "78.2% and 84.0%"}, {"measurement": "Dead (%)", "setting": "[3]; [7]", "result": "21.8% and 16.0%"}, {"measurement": "reduction of cell viability", "setting": "[3]; 293T cells, IC50 concentration, 24 h", "result": 61, "unit": "%"}, {"measurement": "effect on cell viability", "setting": "[3]; [8]", "result": "nearly total death"}, {"measurement": "percentage of live cells", "setting": "[3]; 293T cells, 24 h", "result": "81.1% ± 4.1%"}]}
{"smiles": "O=C(CCc1ccc(O)c(O)c1)NCCCNCCCCNCCCNC(=O)CCc1ccc(O)c(O)c1", "note": "[Kukoamine A]", "values": [{"measurement": "IC50", "setting": "[2]", "result": 1070, "unit": "µM"}, {"measurement": "Alive (%)", "setting": "[3]; [5]", "result": "6.25% and 5.88%"}, {"measurement": "Dead (%)", "setting": "[3]; [5]", "result": "94.1% and 93.8%"}, {"measurement": "Alive (%)", "setting": "[3]; [6]", "result": "8.33% and 0%"}, {"measurement": "Dead (%)", "setting": "[3]; [6]", "result": "91.7% and 100%"}, {"measurement": "Alive (%)", "setting": "[3]; [7]", "result": "89.8% and 85.3%"}, {"measurement": "Dead (%)", "setting": "[3]; [7]", "result": "10.2% and 14.7%"}, {"measurement": "effect on cell viability", "setting": "[3]; [8]", "result": "significantly reduced"}, {"measurement": "effect on cell viability", "setting": "[3]; 293T cells, full IC50 concentration, 24 h", "result": "significantly reduced"}, {"measurement": "percentage of live cells", "setting": "[3]; 293T cells, 24 h", "result": "87.55% ± 1.48%"}, {"measurement": "adverse effects", "setting": "[4]", "result": "no significant reported adverse effects"}]}
